Results: patent US8039490B2, “Benzoyl-piperidine derivatives as dual modulators of the 5-HT2A and D3 receptors” (Hoffmann-La Roche Inc., priority 2006, dated 2011)

What was measured:
[1] = target: T1, human D3 dopamine receptor (Homo sapiens, UniProt P35462); assay: Radioligand binding, human D3 receptor ([3H]-spiperone); details: first value of the cell; membranes of transfected HEK-293 EBNA cells, 0.5 nM [3H]-spiperone; read-out: Ki(nM) D3/5HT2A/D2: D3
T1 construct: expressed in transfected cells; host or cells: HEK-293 EBNA cells (transient transfection), membrane preparation
T1 sequence (P35462 whole entry): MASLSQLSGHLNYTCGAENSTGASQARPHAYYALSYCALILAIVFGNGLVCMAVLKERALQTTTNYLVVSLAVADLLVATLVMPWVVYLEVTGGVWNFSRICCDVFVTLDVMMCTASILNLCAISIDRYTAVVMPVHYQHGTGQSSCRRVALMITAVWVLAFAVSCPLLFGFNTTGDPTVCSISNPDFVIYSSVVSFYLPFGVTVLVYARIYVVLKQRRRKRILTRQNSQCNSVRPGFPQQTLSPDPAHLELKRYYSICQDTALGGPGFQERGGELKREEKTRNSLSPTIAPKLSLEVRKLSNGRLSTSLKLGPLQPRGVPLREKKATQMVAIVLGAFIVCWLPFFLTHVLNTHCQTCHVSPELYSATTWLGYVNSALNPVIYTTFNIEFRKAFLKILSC
Protocol: (§1) The cells were harvested 48 h post-transfection, washed three times with cold PBS and stored at −80° C. prior to use. The pellet was suspended in cold 50 mM Tris-HCl buffer containing 10 mM EDTA (pH 7.4) and homogenized with a Polytron (Kinematica AG, Basel, Switzerland) for 20-30 sec at 12.000 rpm. After centrifugation at 48.000×g for 30 min at 4° C., the pellet was resuspended in cold 10 mM Tris-HCl buffer containing 0.1 mM EDTA (pH 7.4), homogenized, and centrifuged as above. This pellet was further resuspended in a smaller volume of ice cold 10 mM Tris-HCl buffer containing 0.1 mM EDTA (pH 7.4) and homogenized with a Polytron for 20-30 sec at 12.000 rpm. The protein content of this homogenate was determined with the Bio-Rad (Bradford) Protein Assay (Biorad Laboratories GmbH, München, Germany) according to the instructions of the manufacturer using gamma globulin as the standard. This homogenate was stored at −80° C. in aliquots and thawed immediately prior to use.
(§2) Aliquots of membrane preparations were thawed at RT, resupended in assay buffer (D2, D3: 50 mM Tris-HCl, 120 mM NaCl, 5 mM MgCl2, 1 mM EDTA, 5 mM KCl, 1.5 mM CaCl2, pH=7.4; 5-HT2A: 50 mM Tris-HCl, 10 mM MgCl2, 1 mM EGTA, pH=7.4), homogenized with a Polytron for 20-30 sec at 12.000 rpm and adjusted to a final concentration of approximately 7.5 μg protein/well (D2, D3) and 15 μg protein/well (5-HT2A), respectively.
(§3) The binding affinity (Ki) of the compounds was determined using radioligand binding. […] The nonspecific binding was determined with equally composed reaction mixtures in the presence of 10 μM unlabelled spiperone. Per well 45 μl of Microscint 40 (Perkin Elmer, Schwerzenbach, Switzerland) was added, plates for sealed, shaken for 20 min and counted for 3 min on a Topcount Microplate Scintillation Counter (Canberra Packard SA, Zürich, Switzerland) with quenching correction.
(§4) The CPM value for each duplicate of a concentration of competing compound was averaged (y1), then the % specific binding was calculated according to the equation (((y1−non-specific)/(total binding-non-specific))×100). Graphs were plotted with the % specific binding using XLfit, a curve fitting program that iteratively plots the data using Levenburg Marquardt algorithm. The single site competition analysis equation used was y=A+((B−A)/(+((x/C)^D))), where y is the % specific binding, A is the minimum y, B is the maximum y, C is the IC50, x is the log10 of the concentration of the competing compound and D is the slope of the curve (the Hill Coefficient). […] The affinity constant (Ki) was calculated using the Cheng-Prusoff equation KI =(IC50/1+([L]/Kd), where [L] is the concentration of radioligand and Kd is the dissociation constant of the radioligand at the receptor as determined by the saturation isotherm.

[2] = target: T2, human 5-HT2A serotonin receptor (Homo sapiens, UniProt P28223); assay: Radioligand binding, human 5-HT2A receptor ([3H]-ketanserin); details: second value of the cell; membranes of transfected HEK-293 EBNA cells, 1.1 nM [3H]-ketanserin; read-out: Ki(nM) D3/5HT2A/D2: 5HT2A
T2 construct: expressed in transfected cells; host or cells: HEK-293 EBNA cells (transient transfection), membrane preparation
T2 sequence (P28223 whole entry): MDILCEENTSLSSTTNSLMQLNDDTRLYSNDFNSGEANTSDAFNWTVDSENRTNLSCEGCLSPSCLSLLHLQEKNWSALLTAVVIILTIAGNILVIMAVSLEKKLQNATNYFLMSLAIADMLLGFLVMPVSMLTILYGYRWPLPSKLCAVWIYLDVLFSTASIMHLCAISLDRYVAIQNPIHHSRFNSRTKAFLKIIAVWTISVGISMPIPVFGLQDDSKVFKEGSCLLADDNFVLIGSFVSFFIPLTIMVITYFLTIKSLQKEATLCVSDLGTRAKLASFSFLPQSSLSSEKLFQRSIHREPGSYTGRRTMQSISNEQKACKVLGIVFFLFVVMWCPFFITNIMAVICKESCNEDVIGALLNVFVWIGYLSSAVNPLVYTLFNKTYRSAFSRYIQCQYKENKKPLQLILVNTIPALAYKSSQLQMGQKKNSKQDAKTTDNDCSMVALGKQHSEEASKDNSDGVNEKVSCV
Protocol: as §1, §2, §3, §4

[3] = target: T3, human D2 dopamine receptor (Homo sapiens, UniProt P14416); assay: Radioligand binding, human D2 receptor ([3H]-spiperone); details: third value of the cell; membranes of transfected HEK-293 EBNA cells, 0.7 nM [3H]-spiperone; read-out: Ki(nM) D3/5HT2A/D2: D2
T3 construct: expressed in transfected cells; host or cells: HEK-293 EBNA cells (transient transfection), membrane preparation
T3 sequence (P14416 whole entry): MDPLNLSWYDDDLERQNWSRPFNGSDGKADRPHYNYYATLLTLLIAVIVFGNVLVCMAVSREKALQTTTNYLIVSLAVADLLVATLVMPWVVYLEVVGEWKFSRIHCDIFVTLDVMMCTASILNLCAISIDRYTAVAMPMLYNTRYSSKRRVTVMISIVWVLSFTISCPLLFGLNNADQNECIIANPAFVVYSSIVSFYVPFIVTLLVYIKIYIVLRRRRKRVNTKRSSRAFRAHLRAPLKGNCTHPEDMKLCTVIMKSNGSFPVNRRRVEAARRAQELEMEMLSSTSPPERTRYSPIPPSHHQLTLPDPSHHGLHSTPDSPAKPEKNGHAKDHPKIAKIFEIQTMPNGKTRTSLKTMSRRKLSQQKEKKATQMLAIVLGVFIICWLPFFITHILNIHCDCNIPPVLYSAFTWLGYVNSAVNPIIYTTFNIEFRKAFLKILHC
Protocol: as §1, §2, §3, §4

O=C(N[C@H]1CC[C@H](CCN2CCC(C(=O)c3ccc(F)cc3)CC2)CC1)c1ccnc2ncccc12 [Example 20, [1,8]Naphthyridine-4-carboxylic acid trans-(4-{2-[4-(4-fluoro-benzoyl)-piperidin-1-yl]-ethyl}-cyclohexyl)-amide]
Ki [1]: 18 nM
Ki [2]: 5 nM
Ki [3]: 586 nM

O=C(CC(F)(F)F)N[C@H]1CC[C@H](CCN2CCC(C(=O)c3ccc(F)cc3)CC2)CC1 [Example 26, 3,3,3-Trifluoro-N-trans-(4-{2-[4-(4-fluoro-benzoyl)-piperidin-1-yl]-ethyl}-cyclohexyl)-propionamide]
Ki [1]: 17 nM
Ki [2]: 14 nM
Ki [3]: 684 nM

COCCC(=O)N[C@H]1CC[C@H](CCN2CCC(C(=O)c3ccc(F)cc3F)CC2)CC1 [Example 58, N-trans (4-{2-[4-(2,4-Difluoro-benzoyl)-piperidin-1-yl]-ethyl}-cyclohexyl)-3-methoxy-propionamide]
Ki [1]: 19 nM
Ki [2]: 80 nM
Ki [3]: 3540 nM

COc1cc(CC(=O)N[C@H]2CC[C@H](CCN3CCC(C(=O)c4ccc(F)cc4)CC3)CC2)cc(OC)c1 [Example 30A37, 2-(3,5-Dimethoxy-phenyl)-N-trans (4-{2-[4-(4-fluoro-benzoyl)-piperidin-1-yl]-ethyl}-cyclohexyl)-acetamide]
Ki [1]: 29 nM
Ki [2]: 11 nM
Ki [3]: 2000 nM

Cc1ccc(NC(=O)N[C@H]2CC[C@H](CCN3CCC(C(=O)c4ccc(F)cc4)CC3)CC2)cc1 [Example 41, Trans-1-(4-{2-[4-(4-Fluoro-benzoyl)-piperidin-1-yl]-ethyl}-cyclohexyl)-3-p-tolyl-urea]
Ki [1]: 4 nM
Ki [2]: 11 nM
Ki [3]: 677 nM

Trans-1-(4-Chloro-phenyl)-3-(4-{2-[4-(4-fluoro-benzoyl)-piperidin-1-yl]-ethyl}-cyclohexyl)-urea [Example 39]
Ki [1]: 2 nM
Ki [2]: 3 nM
Ki [3]: 1840 nM

Cc1cc(CC(=O)N[C@H]2CC[C@H](CCN3CCC(C(=O)c4ccc(F)cc4)CC3)CC2)on1 [Example 30A36]
Ki [1]: 26 nM
Ki [2]: 5 nM
Ki [3]: 1280 nM

O=C(N[C@H]1CC[C@H](CCN2CCC(C(=O)c3ccc(F)cc3)CC2)CC1)c1ccc(S(=O)(=O)c2ccc(Cl)cc2)cc1 [Example 23, 4-(4-Chloro-benzenesulfonyl)-N-trans (4-{2-[4-(4-fluoro-benzoyl)-piperidin-1-yl]-ethyl}-cyclohexyl)-benzamide]
Ki [1]: 72 nM
Ki [2]: 5 nM
Ki [3]: 73 nM

O=C(N[C@H]1CC[C@H](CCN2CCC(O)(C(=O)c3ccccc3)CC2)CC1)c1ccnc2ccccc12 [Example 33, Quinoline-4-carboxylic acid trans-{4-[2-(4-benzoyl-4-hydroxy-piperidin-1-yl)-ethyl]-cyclohexyl}-amide]
Ki [1]: 110 nM
Ki [2]: 65 nM
Ki [3]: 1980 nM

O=C(c1ccc(F)cc1)C1CCN(CC[C@H]2CC[C@H](NC(=O)C3(O)CC3)CC2)CC1 [Example 30A59, 1-Hydroxy-cyclopropanecarboxylic acid (trans-4-{2-[4-(4-fluoro-benzoyl)-piperidin-1-yl]-ethyl}-cyclohexyl)-amide]
Ki [1]: 19 nM
Ki [2]: 5 nM
Ki [3]: 888 nM

O=C(C#Cc1ccccc1)N[C@H]1CC[C@H](CCN2CCC(C(=O)c3ccc(F)cc3)CC2)CC1 [Example 30A28, 3-Phenyl-propynoic acid trans (4-{2-[4-(4-fluoro-benzoyl)-piperidin-1-yl]-ethyl}-cyclohexyl)-amide]
Ki [1]: 9 nM
Ki [2]: 5 nM
Ki [3]: 470 nM
